Laboratory results reported in the NIST ThermoML archive (doi:10.1016/j.jct.2005.05.008).

Experiment: an = ratio of the nth substance listed, in mol/kg
Conditions: 101 kPa, Liquid, Vibrating tube method

C[N+](C)(C)C.[O-][Cl+3]([O-])([O-])[O-] [tetramethylammonium perchlorate] + CN(C)C=O
mass density [kg/m3]
Conditions	a1 = 0.01523	a1 = 0.01902	a1 = 0.02912	a1 = 0.03309	a1 = 0.03853	a1 = 0.04774	a1 = 0.05313	a1 = 0.0674	a1 = 0.08195	a1 = 0.09648
283.15 K	958.937	959.151	959.718	959.941	960.244	960.757	961.055	961.841	962.642	963.443
293.15 K	949.438	949.656	950.233	950.46	950.768	951.288	951.59	952.388	953.2	954.007
298.15 K	944.682	944.901	945.481	945.71	946.019	946.545	946.848	947.652	948.469	949.284
303.15 K	939.914	940.135	940.72	940.951	941.262	941.792	942.097	942.907	943.731	944.551
313.15 K	930.347	930.572	931.168	931.402	931.719	932.257	932.568	933.392	934.229	935.06
323.15 K	920.732	920.962	921.569	921.807	922.13	922.676	922.995	923.831	924.679	925.524
333.15 K	911.066	911.299	911.916	912.157	912.486	913.042	913.365	914.216	915.082	915.939
